Reference: patent publication US9296745B2, “Diacylglycerol acyltransferase 2 inhibitors” (Pfizer Inc., priority 2012, dated 2016)

Target: Human DGAT2 (hDGAT2) (Homo sapiens (Human), UniProt Q96PD7)
Experiment: In vitro DGAT2 assay, IC50 determination with hDGAT2 membrane fraction
Format: biochemical
Settings: geometric mean; background for complete inhibition of DGAT2 obtained with 50 μM (1R,2R)-2-({3′-Fluoro-4′-[(6-fluoro-1,3-benzothiazol-2-yl)amino]-1,1′-biphenyl-4-yl}carbonyl)cyclopentanecarboxylic acid; read-out: DGAT2 IC50
Summary of the method: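 CHAPS-solubilized membrane fraction of FLAG-tagged hDGAT2 from baculovirus-infected SF9 cells (0.01 mg/mL) in 100 mM Hepes-NaOH pH 7.4, 20 mM MgCl2, 200 nM methyl arachidonyl fluorophosphonate; compounds pre-incubated 20 min with 0.04% BSA. Reaction 40 min at room temperature, stopped with H3PO4. [^14C]tridecanoylglycerol in organic phase counted; 11-point geometric mean IC50.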

Chain of Human DGAT2 (hDGAT2) (Q96PD7 whole entry): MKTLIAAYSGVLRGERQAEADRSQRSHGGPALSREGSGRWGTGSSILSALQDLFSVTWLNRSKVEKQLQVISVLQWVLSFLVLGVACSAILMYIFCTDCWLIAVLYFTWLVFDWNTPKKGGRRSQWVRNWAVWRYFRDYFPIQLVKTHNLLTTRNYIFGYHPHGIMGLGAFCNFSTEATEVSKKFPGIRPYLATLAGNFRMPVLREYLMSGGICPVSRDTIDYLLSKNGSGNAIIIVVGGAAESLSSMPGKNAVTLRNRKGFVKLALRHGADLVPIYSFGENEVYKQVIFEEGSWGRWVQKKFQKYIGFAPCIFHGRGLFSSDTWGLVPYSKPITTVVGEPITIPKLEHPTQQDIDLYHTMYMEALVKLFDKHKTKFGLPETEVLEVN

IC50 [nM] | Compound
4240 | c1cc(-c2nc3ccc(N4CCC[C@H](c5ncc6n5CCC6)C4)nc3[nH]2)nc(C2CC2)n1 [Example 135, (S)-2-(2-cyclopropylpyrimidin-4-yl)-5-(3-(6,7-dihydro-5H-pyrrolo[1,2-c]imidazol-3-yl)piperidin-1-yl)-3H-imidazo[4,5-b]pyridine]
6.32 | O=C([C@@H]1CCCN(c2nc3[nH]c(-c4ccnc(C5CC5)n4)nc3cc2F)C1)N1CCCC1 [Example 136, (R)-(1-(2-(2-Cyclopropylpyrimidin-4-yl)-6-fluoro-3H-imidazo[4,5-b]pyridin-5-yl)piperidin-3-yl)(pyrrolidin-1-yl)methanone]
1280 | O=C([C@@H]1CCCN(c2ccc3nc(C4(N5CCOCC5=O)CC4)[nH]c3n2)C1)N1CCCC1 [Example 137, (R)-4-(1-(5-(3-(Pyrrolidine-1-carbonyl)piperidin-1-yl)-3H-imidazo[4,5-b]pyridin-2-yl)cyclopropyl)morpholin-3-one]
71.6 | O=C([C@@H]1CCCN(c2cnc3nc(-c4ccnc(C5CC5)n4)[nH]c3n2)C1)N1CCCC1 [Example 138, (R)-(1-(2-(2-Cyclopropylpyrimidin-4-yl)-1H-imidazo[4,5-b]pyrazin-6-yl)piperidin-3-yl)(pyrrolidin-1-yl)methanone]
62.3 | O=C([C@@H]1CCCN(c2ccc3nc(-c4cccc(C5(O)CC5)n4)[nH]c3n2)C1)N1CCCC1 [Example 139, (R)-(1-(2-(6-(1-Hydroxycyclopropyl)pyridin-2-yl)-3H-imidazo[4,5-b]pyridin-5-yl)piperidin-3-yl)(pyrrolidin-1-yl)methanone]
207 | CC(C)(O)c1csc(-c2nc3ccc(N4CCC[C@@H](C(=O)N5CCCC5)C4)nc3[nH]2)n1 [Example 140, (R)-(1-(2-(4-(2-Hydroxypropan-2-yl)thiazol-2-yl)-3H-imidazo[4,5-b]pyridin-5-yl)piperidin-3-yl)(pyrrolidin-1-yl)methanone]
24.8 | O=C([C@H]1CN(c2ccc3nc(-c4cccc(C5CC5)n4)[nH]c3n2)CCO1)N1CCCC1 [Example 142, (R)-(4-(2-(6-Cyclopropylpyridin-2-yl)-3H-imidazo[4,5-b]pyridin-5-yl)morpholin-2-yl)(pyrrolidin-1-yl)methanone]
511 | O=C([C@H]1CN(c2ccc3nc(-c4cccc(C(F)(F)F)n4)[nH]c3n2)CCO1)N1CCCC1 [Example 143, (R)-Pyrrolidin-1-yl(4-(2-(6-(trifluoromethyl)pyridin-2-yl)-3H-imidazo[4,5-b]pyridin-5-yl)morpholin-2-yl)methanone]
411 | FC(F)Oc1cccc(-c2nc3ccc(N4CCO[C@H](c5ccccn5)C4)nc3[nH]2)c1 [Example 145, (S)-4-(2-(3-(difluoromethoxy)phenyl)-3H-imidazo[4,5-b]pyridin-5-yl)-2-(pyridin-2-yl)morpholine]
401 | O=C([C@H]1CN(c2ccc3nc(-c4cncc(C5CC5)n4)[nH]c3n2)CCO1)N1CCCC1 [Example 146, (R)-(4-(2-(6-Cyclopropylpyrazin-2-yl)-3H-imidazo[4,5-b]pyridin-5-yl)morpholin-2-yl)(pyrrolidin-1-yl)methanone]
9.21 | O=C([C@@H]1CCCN(c2ccc3nc(-c4ccnc(C5CCC5)n4)[nH]c3n2)C1)N1CCCC1 [Example 147, (R)-(1-(2-(2-Cyclobutylpyrimidin-4-yl)-3H-imidazo[4,5-b]pyridin-5-yl)piperidin-3-yl)(pyrrolidin-1-yl)methanone]
766 | O=C([C@@H]1CCCN(c2ccc3nc(-c4nccc(C5CC5)n4)[nH]c3n2)C1)N1CCOCC1 [Example 149, (R)-(1-(2-(4-Cyclopropylpyrimidin-2-yl)-3H-imidazo[4,5-b]pyridin-5-yl)piperidin-3-yl)(morpholino)methanone]
47.3 | CN(C)C(=O)[C@@H]1CCCN(c2ccc3nc(-c4cccc(C5CC5)n4)[nH]c3n2)C1 [Example 150, (R)-1-(2-(6-Cyclopropylpyridin-2-yl)-3H-imidazo[4,5-b]pyridin-5-yl)-N,N-dimethylpiperidine-3-carboxamide]
275 | N#CC1(c2cccc(-c3nc4ccc(N5CCC[C@@H](C(=O)N6CCCC6)C5)nc4[nH]3)n2)CC1 [Example 156, (R)-1-(6-(5-(3-(Pyrrolidine-1-carbonyl)piperidin-1-yl)-1H-imidazo[4,5-b]pyridin-2-yl)pyridin-2-yl)cyclopropanecarbonitrile]
211 | CC(c1ccccc1)c1nc2ccc(N3CCC[C@@H](C(=O)N4CCCC4)C3)nc2[nH]1 (stereo partly drawn) [Example 157, (R)-(1-(2-(1-Phenylethyl)-3H-imidazo[4,5-b]pyridin-5-yl)piperidin-3-yl)(pyrrolidin-1-yl)methanone]
3.58 | O=C([C@@H]1CCCN(c2ccc3nc(-c4cccc(C5CC5)n4)[nH]c3n2)C1)N1CC=CC1 [Example 158, (R)-(1-(2-(6-Cyclopropylpyridin-2-yl)-3H-imidazo[4,5-b]pyridin-5-yl)piperidin-3-yl)(2,5-dihydro-1H-pyrrol-1-yl)methanone]
28.2 | O=C([C@@H]1CCCN(c2ncc3nc(-c4ccnc(C5CC5)n4)[nH]c3n2)C1)N1CCCC1 [Example 159, (R)-(1-(8-(2-Cyclopropylpyrimidin-4-yl)-9H-purin-2-yl)piperidin-3-yl)(pyrrolidin-1-yl)methanone]
218 | O=C([C@@H]1CCCN(c2ccc3nc(C4(c5ccncc5)CC4)[nH]c3n2)C1)N1CCCC1 [Example 161, (R)-(1-(2-(1-(Pyridin-4-yl)cyclopropyl)-3H-imidazo[4,5-b]pyridin-5-yl)piperidin-3-yl)(pyrrolidin-1-yl)methanone]
434 | Cc1cc(N2CCC[C@@H](C(=O)N3CCCC3)C2)nc2[nH]c(-c3ccnc(C4CC4)n3)nc12 [Example 162, (R)-(1-(2-(2-Cyclopropylpyrimidin-4-yl)-7-methyl-3H-imidazo[4,5-b]pyridin-5-yl)piperidin-3-yl)(pyrrolidin-1-yl)methanone]
3400 | O=C([C@@H]1CCCN(c2ccc3nc(-c4cccc(-c5nnn[nH]5)c4)[nH]c3n2)C1)N1CCCC1 [Example 163, (R)-(1-(2-(3-(2H-Tetrazol-5-yl)phenyl)-3H-imidazo[4,5-b]pyridin-5-yl)piperidin-3-yl)(pyrrolidin-1-yl)methanone]
2800 | CN(C)C(=O)[C@H]1CN(c2ccc3nc(-c4ccnc(C5CC5)n4)[nH]c3n2)CC(F)(F)C1 [Example 164, (R)-1-(2-(2-Cyclopropylpyrimidin-4-yl)-3H-imidazo[4,5-b]pyridin-5-yl)-5,5-difluoro-N,N-dimethylpiperidine-3-carboxamide]
16500 | CN(C)C(=O)[C@@H]1CN(c2ccc3nc(-c4ccnc(C5CC5)n4)[nH]c3n2)CC(F)(F)C1 [Example 165, (S)-1-(2-(2-cyclopropylpyrimidin-4-yl)-3H-imidazo[4,5-b]pyridin-5-yl)-5,5-difluoro-N,N-dimethylpiperidine-3-carboxamide]
2280 | O=C([C@@H]1CCCN(c2ccc3nc(C(F)(F)c4ccccc4)[nH]c3n2)C1)N1CCCC1 [Example 166, (R)-(1-(2-(Difluoro(phenyl)methyl)-3H-imidazo[4,5-b]pyridin-5-yl)piperidin-3-yl)(pyrrolidin-1-yl)methanone]
1390 | c1cc(-c2nc3ccc(N4CCC[C@H](c5nnc6n5CCC6)C4)nc3[nH]2)nc(C2CC2)n1 [Example 168, (S)-2-(2-cyclopropylpyrimidin-4-yl)-5-(3-(6,7-dihydro-5H-pyrrolo[2,1-c][1,2,4]triazol-3-yl)piperidin-1-yl)-3H-imidazo[4,5-b]pyridine]
161 | c1cc(-c2nc3ccc(N4CCC[C@H](c5nnc6n5CCC6)C4)nc3[nH]2)nc(C2CC2)c1 [Example 171, (S)-2-(6-cyclopropylpyridin-2-yl)-5-(3-(6,7-dihydro-5H-pyrrolo[2,1-c][1,2,4]triazol-3-yl)piperidin-1-yl)-3H-imidazo[4,5-b]pyridine]
83 | NC(=O)c1cccc(-c2nc3ccc(N4CCC[C@@H](C(=O)N5CCCC5)C4)nc3[nH]2)n1 [Example 172, (R)-6-(5-(3-(Pyrrolidine-1-carbonyl)piperidin-1-yl)-3H-imidazo[4,5-b]pyridin-2-yl)picolinamide]

Same assay, conditions: read-out: DGAT2 IC50

IC50 [nM] | Compound
285 | Clc1cccc(-c2nc3ccc(N4CCO[C@@H](c5ccccn5)C4)nc3[nH]2)c1 [Example 152, (R)-4-(2-(3-chlorophenyl)-3H-imidazo[4,5-b]pyridin-5-yl)-2-(pyridin-2-yl)morpholine]
48.1 | O=C([C@@H]1CCCN(c2ccc3nc(-c4cccc(C5CC5)n4)[nH]c3n2)C1)N1CCOCC1 [Example 153, (R)-(1-(2-(6-Cyclopropylpyridin-2-yl)-3H-imidazo[4,5-b]pyridin-5-yl)piperidin-3-yl)(morpholino)methanone]
40.5 | O=C([C@@H]1CCCN(c2ccc3nc(-c4cccc(Cl)c4)[nH]c3n2)C1)N1CCOCC1 [Example 154, (R)-(1-(2-(3-Chlorophenyl)-3H-imidazo[4,5-b]pyridin-5-yl)piperidin-3-yl)(morpholino)methanone]
35.6 | O=C([C@@H]1CCCN(c2ccc3nc(-c4cccc(OC(F)F)c4)[nH]c3n2)C1)N1CCOCC1 [Example 155, (R)-(1-(2-(3-(Difluoromethoxy)phenyl)-3H-imidazo[4,5-b]pyridin-5-yl)piperidin-3-yl)(morpholino)methanone]
789 | O=C([C@@H]1CCCN(c2ccc3nc(C4(c5ccc[n+]([O-])c5)CC4)[nH]c3n2)C1)N1CCCC1 [Example 160, (R)-3-(1-(5-(3-(Pyrrolidine-1-carbonyl)piperidin-1-yl)-3H-imidazo[4,5-b]pyridin-2-yl)cyclopropyl)pyridine 1-oxide]
